US3968207A, “Method of controlling fleas and ticks on cats and dogs” (priority 1975, dated 1976)
Values joined by “and” are separate entries in the source; they are usually repeats but may differ in a detail not shown here. Equal entries are not always repeated.

What was measured:
[1] = Toxicity (general statement); assay type: in vivo, dogs and cats; conditions: at concentrations many times that of the actual amounts employed
Rhipicephalus sanguineus = assay: Tick control on dogs fed medicated diet, Table V; assay type: in vivo; conditions: for % Control of Adult Engorged Female Ticks R.S.: dogs
Experimental: (§1) Five groups of two mongrel dogs each were fed a daily dose of 0, 6.25, 25, 100 or 400 mg. O,O,O',O'-tetramethyl O,O'-thiodi-p-phenylene phosphorothioate/kg. body weight in Agway Big Red Dog Meal. Dogs eating less than 75% of the food were given a corrected dose by gelatin capsule to equal 100%. Medication began 1 day after infesting each dog with 100 adult Ctenocephalides felis and 2 days before infesting each dog with 10 Dermacentor variabiles and 10 Rhipicephalus sanguineus adults.

Dermacentor variabilis = assay: Tick control on dogs fed medicated diet, Table V; assay type: in vivo; conditions: for % Control of Adult Engorged Female Ticks D.V.: dogs
Experimental: as §1

Ctenocephalides felis [2] = assay: 2% powder for control of flea infestations on dogs; assay type: in vivo; conditions: for Percent of Dogs with Control / Number of Dogs on Which Fleas were Controlled: 20 mg/kg 2% powder; for Average Dead in Treated / No. of Dead Fleas Recovered in 48 Hrs.: 20 mg/kg; for No. of Dead Fleas Recovered in 48 Hrs.: Trial 1, individual dogs
Experimental: An experiment was carried out to determine the activity of O,O,O',O'-tetramethyl O,O'-thiodi-p-phenylene phosphorothioate 2% powder for the control of Ctenocephalides felis infestations on dogs. A group of 40 dogs of mixed breeds were obtained from a licensed laboratory animal dealer and housed in individual cages. The 2% powder was formulated from a 25% dust concentrate containing […] O,O,O',O'-tetramethyl O,O'-thiodi-p-phenylene phosphorothioate, 24% celite 209 and 50% acidic kaolin. Talc was used to dilute the concentrate to 2% active ingredient. Each dog was infested with 100 1 day old adult C. felis 72 hours prior to treatment and reinfested on a weekly basis for 6 weeks beginning 7 days after treatment. Each dog was treated with 20 mg. actual drug per kg. body weight formulated as a 2% powder. Five or more dogs were treated with a blank powder and used as infested controls. Table XV summarizes average dead fleas in treated versus average dead fleas in control.

Ctenocephalides felis [3] = assay: 2% powder against experimental flea infestations on cats; assay type: in vivo; conditions: 60 mg/kg as 2% powder
Experimental: An experiment was conducted using O,O,O',O'-tetramethyl O,O'-thiodi-p-phenylene phosphorothioate which was prepared from a 25% concentrate diluted with talc so the final powder was 2% drug. Prior to the start of the test 23 cats were classified according to sex, age, hair length and color and divided into five groups. One of these groups was then randomly selected to be the controls and the other groups were assigned for treatment in a random order. The amount of 2% drug dust applied to each cat was calculated prior to treatment to give a dose rate of 60 mg. drug/kg. The duster was weighed before treating each cat and at intervals during dusting to get as near the desired dose as possible. […] Table VII summarizes the results obtained up to 48 days after treatment.

Ctenocephalides felis [4] = assay: Topical (spray or 2% dust) flea control on dogs, Table I; assay type: in vivo
Experimental: Dogs used in testing were placed in raised cages with steel grate floors. Three days prior to treatment, 100 fleas were placed on each dog. On the day of treatment each cage was lined with absorbent brown paper. Dogs were treated at various dose levels (1-60 mg./kg.) applied topically using a 2% active ingredient dust formulation, or a dilute aqueous dispersion applied as a spray. Activity was determined by the number of dead fleas recovered from the brown paper, and a systematic examination of the test animal in relation to infested, untreated control dogs.
Residual activity of the initial application of the test compound was done by experimentally reinfesting each dog at 7-day intervals with an additional 100 adult C. felis. Activity was determined as described above.

fleas and ticks = assay: Control of fleas and ticks (general statement); assay type: in vivo; conditions: topically and systemically
[5] = 400 mg/kg in feed, end of experiment (8 days)

## COP(=S)(OC)Oc1ccc(Sc2ccc(OP(=S)(OC)OC)cc2)cc1 [O,O,O',O'-tetramethyl O,O'-thiodi-p-phenylene phosphorothioate]
[1]
  toxicity: substantially non-toxic
Rhipicephalus sanguineus; 6.25 mg/kg in feed
  effect against adult ticks: ineffective
  % Control of Adult Engorged Female Ticks R.S.: 20%
Rhipicephalus sanguineus; 25 mg/kg in feed
  effect against adult ticks: ineffective
  % Control of Adult Engorged Female Ticks R.S.: 0%
Rhipicephalus sanguineus; 100 mg/kg in feed
  condition of ticks: engorged and detached normally
  % Control of Adult Engorged Female Ticks R.S.: 50%
Rhipicephalus sanguineus; 400 mg/kg in feed, end of experiment
  condition of two female ticks on the ear of one dog: appeared normal, though not completely engorged
Rhipicephalus sanguineus; [5]
  condition of adult ticks in capsules: either dead or moribund
Rhipicephalus sanguineus; 400 mg/kg in feed
  % Control of Adult Engorged Female Ticks R.S.: 100%
Dermacentor variabilis; 6.25 mg/kg in feed
  effect against adult ticks: ineffective
  % Control of Adult Engorged Female Ticks D.V.: 0%
Dermacentor variabilis; 25 mg/kg in feed
  effect against adult ticks: ineffective
  % Control of Adult Engorged Female Ticks D.V.: 10%
Dermacentor variabilis; 100 mg/kg in feed, some ticks on one dog
  condition of ticks: discolored and stunted
Dermacentor variabilis; [5]
  condition of adult ticks in capsules: either dead or moribund
Dermacentor variabilis; 100 mg/kg in feed
  % Control of Adult Engorged Female Ticks D.V.: 30%
Dermacentor variabilis; 400 mg/kg in feed
  % Control of Adult Engorged Female Ticks D.V.: 100%
Ctenocephalides felis [2]; week 0
  Percent of Dogs with Control: 100%
  No. of Dead Fleas Recovered in 48 Hrs.: 18 and 44 and 41 and 34 and 26 and 38 and 28 and 50 and 21 and 22 and 40 and 24 and 25
Ctenocephalides felis [2]; week 1
  Percent of Dogs with Control: 100%
  No. of Dead Fleas Recovered in 48 Hrs.: 30 and 44 and 53 and 43 and 14 and 37 and 26 and 74 and 49 and 57 and 33 and 31 and 38
Ctenocephalides felis [2]; week 2
  Percent of Dogs with Control: 100%
  No. of Dead Fleas Recovered in 48 Hrs.: 54 and 39 and 55 and 40 and 27 and 64 and 31 and 44 and 38 and 32 and 43 and 50 and 42
Ctenocephalides felis [2]; week 3
  Percent of Dogs with Control: 100%
  No. of Dead Fleas Recovered in 48 Hrs.: 37 and 36 and 47 and 43 and 35 and 42 and 33 and 63 and 44 and 60 and 29
Ctenocephalides felis [2]; week 4
  Percent of Dogs with Control: 92.5%
  No. of Dead Fleas Recovered in 48 Hrs.: 43 and 46 and 48 and 25 and 8 and 21 and 35 and 61 and 24 and 34 and 6 and 26 and 42
Ctenocephalides felis [2]; week 5
  Percent of Dogs with Control: 80%
  No. of Dead Fleas Recovered in 48 Hrs.: 35 and 63 and 48 and 16 and 5 and 21 and 11 and 36 and 14 and 46 and 39
Ctenocephalides felis [2]; week 6
  Percent of Dogs with Control: 45%
  No. of Dead Fleas Recovered in 48 Hrs.: 5 and 49 and 63 and 10 and 3 and 1 and 23 and 19 and 6 and 7 and 27 and 35
Ctenocephalides felis [2]; Combination of Test 1 & 2, week 0, of 40
  Number of Dogs on Which Fleas were Controlled: 40 dogs
Ctenocephalides felis [2]; Combination of Test 1 & 2, week 1, of 40
  Number of Dogs on Which Fleas were Controlled: 40 dogs
Ctenocephalides felis [2]; Combination of Test 1 & 2, week 2, of 40
  Number of Dogs on Which Fleas were Controlled: 40 dogs
Ctenocephalides felis [2]; Combination of Test 1 & 2, week 3, of 40
  Number of Dogs on Which Fleas were Controlled: 40 dogs
Ctenocephalides felis [2]; Combination of Test 1 & 2, week 4, of 40
  Number of Dogs on Which Fleas were Controlled: 37 dogs
Ctenocephalides felis [2]; Combination of Test 1 & 2, week 5, of 40
  Number of Dogs on Which Fleas were Controlled: 32 dogs
Ctenocephalides felis [2]; Combination of Test 1 & 2, week 6, of 40
  Number of Dogs on Which Fleas were Controlled: 18 dogs
Ctenocephalides felis [2]; Experiment 1, week 0, of 20
  Number of Dogs on Which Fleas were Controlled: 20 dogs
Ctenocephalides felis [2]; Experiment 1, week 1, of 20
  Number of Dogs on Which Fleas were Controlled: 20 dogs
Ctenocephalides felis [2]; Experiment 1, week 2, of 20
  Number of Dogs on Which Fleas were Controlled: 20 dogs
Ctenocephalides felis [2]; Experiment 1, week 3, of 20
  Number of Dogs on Which Fleas were Controlled: 20 dogs
Ctenocephalides felis [2]; Experiment 1, week 4, of 20
  Number of Dogs on Which Fleas were Controlled: 17 dogs
Ctenocephalides felis [2]; Experiment 1, week 5, of 20
  Number of Dogs on Which Fleas were Controlled: 14 dogs
Ctenocephalides felis [2]; Experiment 1, week 6, of 20
  Number of Dogs on Which Fleas were Controlled: 5 dogs
Ctenocephalides felis [2]; Experiment 2, week 0, of 20
  Number of Dogs on Which Fleas were Controlled: 20 dogs
Ctenocephalides felis [2]; Experiment 2, week 1, of 20
  Number of Dogs on Which Fleas were Controlled: 20 dogs
Ctenocephalides felis [2]; Experiment 2, week 2, of 20
  Number of Dogs on Which Fleas were Controlled: 20 dogs
Ctenocephalides felis [2]; Experiment 2, week 3, of 20
  Number of Dogs on Which Fleas were Controlled: 20 dogs
Ctenocephalides felis [2]; Experiment 2, week 4, of 20
  Number of Dogs on Which Fleas were Controlled: 20 dogs
Ctenocephalides felis [2]; Experiment 2, week 5, of 20
  Number of Dogs on Which Fleas were Controlled: 18 dogs
Ctenocephalides felis [2]; Experiment 2, week 6, of 20
  Number of Dogs on Which Fleas were Controlled: 13 dogs
Ctenocephalides felis [2]; Test 1, week 0, control 6.2
  Average Dead in Treated: 31.5
Ctenocephalides felis [2]; Test 1, week 2, control 4.8
  Average Dead in Treated: 40.4
Ctenocephalides felis [2]; Test 1, week 6, control 3.2
  Average Dead in Treated: 18.0
Ctenocephalides felis [2]; Test 2, week 0, control 11.8
  Average Dead in Treated: 43.5
Ctenocephalides felis [3]; fifth week
  control: 64%
Ctenocephalides felis [3]; for four weeks
  residual control against C. felis on cats: excellent residual control
Ctenocephalides felis [3]; for three weeks
  control: 100%
Ctenocephalides felis [3]; fourth week
  control: 90%
Ctenocephalides felis [3]; sixth week
  control: 40%
Ctenocephalides felis [4]; 2% dust 10.0 mg/kg, day 0
  Percent Activity: 100%
Ctenocephalides felis [4]; 2% dust 10.0 mg/kg, day 7
  Percent Activity: 100%
Ctenocephalides felis [4]; 2% dust 10.0 mg/kg, day 14
  Percent Activity: 100%
Ctenocephalides felis [4]; 2% dust 10.0 mg/kg, day 21
  Percent Activity: 100%
Ctenocephalides felis [4]; 2% dust 10.0 mg/kg, day 28
  Percent Activity: 80%
Ctenocephalides felis [4]; 2% dust 10.0 mg/kg, day 42
  Percent Activity: 0%
Ctenocephalides felis [4]; 2% dust 20.0 mg/kg, day 0
  Percent Activity: 100%
Ctenocephalides felis [4]; 2% dust 20.0 mg/kg, day 7
  Percent Activity: 100%
Ctenocephalides felis [4]; 2% dust 20.0 mg/kg, day 14
  Percent Activity: 100%
Ctenocephalides felis [4]; 2% dust 20.0 mg/kg, day 21
  Percent Activity: 100%
Ctenocephalides felis [4]; 2% dust 20.0 mg/kg, day 28
  Percent Activity: 100%
Ctenocephalides felis [4]; 2% dust 20.0 mg/kg, day 42
  Percent Activity: 0%
Ctenocephalides felis [4]; 2% dust 40.0 mg/kg, day 0
  Percent Activity: 100%
Ctenocephalides felis [4]; 2% dust 40.0 mg/kg, day 7
  Percent Activity: 100%
Ctenocephalides felis [4]; 2% dust 40.0 mg/kg, day 14
  Percent Activity: 100%
Ctenocephalides felis [4]; 2% dust 40.0 mg/kg, day 21
  Percent Activity: 100%
Ctenocephalides felis [4]; 2% dust 40.0 mg/kg, day 28
  Percent Activity: 100%
Ctenocephalides felis [4]; 2% dust 40.0 mg/kg, day 42
  Percent Activity: 0%
Ctenocephalides felis [4]; spray 1.25 mg/kg, day 0
  Percent Activity: 100%
Ctenocephalides felis [4]; spray 1.25 mg/kg, day 7
  Percent Activity: 100%
Ctenocephalides felis [4]; spray 1.25 mg/kg, day 14
  Percent Activity: 100%
Ctenocephalides felis [4]; spray 1.25 mg/kg, day 21
  Percent Activity: 100%
Ctenocephalides felis [4]; spray 1.25 mg/kg, day 25
  Percent Activity: 0%
Ctenocephalides felis [4]; spray 2.5 mg/kg, day 0
  Percent Activity: 100%
Ctenocephalides felis [4]; spray 2.5 mg/kg, day 7
  Percent Activity: 100%
Ctenocephalides felis [4]; spray 2.5 mg/kg, day 14
  Percent Activity: 100%
Ctenocephalides felis [4]; spray 2.5 mg/kg, day 21
  Percent Activity: 0%
Ctenocephalides felis [4]; spray 10.0 mg/kg, day 0
  Percent Activity: 100%
Ctenocephalides felis [4]; spray 10.0 mg/kg, day 7
  Percent Activity: 100%
Ctenocephalides felis [4]; spray 10.0 mg/kg, day 14
  Percent Activity: 100%
Ctenocephalides felis [4]; spray 10.0 mg/kg, day 21
  Percent Activity: 100%
Ctenocephalides felis [4]; spray 10.0 mg/kg, day 28
  Percent Activity: 10%
Fleas and ticks
  controlling fleas and ticks: highly effective
